Measurements as given in article PMC5656836, “Distinct activation mechanisms trigger the trypanocidal activity of DNA damaging prodrugs” (Molecular Microbiology, 2017).
Like-named read-outs stand apart in the source and are kept apart here.

Key:
[1] = tested on: bloodstream form T. brucei; assay: Growth inhibition of wild type / control bloodstream form T. brucei (resazurin); type: cell-based
T. cruzi epimastigotes = assay: Growth inhibition of T. cruzi epimastigotes (resazurin); type: cell-based; settings: for EC50: read-out: T. cruzi EC50
L. major promastigotes = assay: Growth inhibition of L. major promastigotes (resazurin); type: cell-based; settings: for EC50: read-out: L. major EC50
RH1^RC1 T. brucei = assay: microbe, parasite or virus in culture; type: cell-based; settings: for EC50: read-out: EC50 RH1^RC1;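 as to ratio (fold difference in EC50 between RH1^RC1 and wild type): resistant clone selected by stepwise exposure to the aziridinyl benzoquinone prodrug in culture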
[2] = tested on: T. brucei over expressing TbNTR (Tbntr++); assay: microbe, parasite or virus in culture; type: cell-based; settings: for EC50: Trypanosoma brucei, read-out: EC50 Tbntr++
[3] = tested on: T. brucei over expressing TbCPR2 (Tbcpr2++); assay: microbe, parasite or virus in culture; type: cell-based; settings: for EC50: Trypanosoma brucei, read-out: EC50 Tbcpr2++
[4] = tested on: T. brucei Tbsnm1 null mutants (ΔTbsnm1); assay: microbe, parasite or virus in culture; type: cell-based; settings: for EC50: Trypanosoma brucei, read-out: EC50 ΔTbsnm1
[5] = tested on: mouse peritoneal macrophages; assay: Toxicity to mouse peritoneal macrophages (cell counts, Giemsa); type: cell-based, BALB/c mice; settings: Peritoneal macrophage, 120 h, read-out: EC50 towards mouse peritoneal macrophages
[6] = tested on: differentiated THP‐1 cells; assay: Mammalian inhibition assay, differentiated THP-1 cells; type: cell-based; settings: Homo sapiens, read-out: THP‐1 EC50
Wild type T. brucei = type: cell-based
[7] = tested on: T. brucei Tbntr heterozygote line; type: cell-based
RH1^RC2 T. brucei = assay: microbe, parasite or virus in culture; type: cell-based; settings: read-out: EC50 RH1^RC2
[8] = tested on: ΔTbsnm1 Tbntr++ T. brucei; type: cell-based
[9] = Trypanosoma brucei, 72 h, read-out: T. brucei EC50
[10] = Trypanosoma brucei, read-out: EC50 Wild type
[11] = Trypanosoma brucei, Table 3, BSF T. brucei wild type, read-out: EC50 Wild type
[12] = Trypanosoma brucei, read-out: EC50 Control

Molecule: CCC(=O)NC1=C(N2CC2C)C(=O)C(NC(=O)CC)=C(N2CC2C)C1=O (stereo not drawn) [ABQ33]
- EC50 [1, 9]: > 10 µM
- EC50 (T. cruzi epimastigotes; Trypanosoma cruzi, 336 h): > 10 µM
- EC50 (L. major promastigotes; Leishmania major, 144 h): 8.157 ± 0.08 µM

Molecule: CCOC(=O)NC1=C(N2CC2)C(=O)C(NC(=O)OCC)=C(N2CC2)C1=O [AZQ]
- EC50 [1, 9]: 8.23 ± 0.272 µM
- EC50 (T. cruzi epimastigotes; Trypanosoma cruzi, 336 h): 6 ± 0.283 µM
- EC50 (L. major promastigotes; Leishmania major, 144 h): > 10 µM

Molecule: NC(=O)c1cc(N2CC2)c([N+](=O)[O-])cc1[N+](=O)[O-] [CB1954, reference compound]
- EC50 (RH1^RC1 T. brucei; Trypanosoma brucei): 13.1 ± 0.972 µM
- EC50 [1, 10]: 2.16 ± 0.125 µM

Molecule: NCCCC(N)(C(=O)O)C(F)F (stereo not drawn) [DFMO, difluoromethylornithine, reference compound]
- Fold difference in EC50 Tbntr++ relative to control [2]: 30720 ± 1330 (1.12)
- EC50 [2]: 30.7 µM
- ratio (fold difference in EC50 between RH1^RC1 and wild type) (RH1^RC1 T. brucei): 1.3
- EC50 (RH1^RC1 T. brucei; Trypanosoma brucei): 22.2 ± 0.383 µM
- Fold difference in EC50 Tbcpr2++ relative to control [3]: 33250 ± 5123 (1.21)
- EC50 [3]: 33.2 µM
- Ratio of EC50 values ΔTbsnm1 / control [4]: 0.99
- Susceptibility of Tbsnm1 null mutants relative to wild type / control (fold more susceptible) [4]: no significant difference
- EC50 [4]: 27.1 ± 0.85 µM
- EC50 [1, 11]: 16.8 ± 2.69 µM
- EC50 [1, 12]: 27.5 ± 0.108 µM

Molecule: O=C1C=C(N2CC2)C(=O)C=C1N1CC1 [DZQ]
- Fold difference in EC50 Tbntr++ relative to control [2]: 90 ± 3 (0.28 )
- EC50 [2]: 0.09 µM
- EC50 [5]: 0.255 µM
- Ratio of EC50 values ΔTbsnm1 / control [4]: 0.27
- EC50 [4]: 0.043 ± 0.002 µM
- T. brucei SI [1]: 1
- EC50 [1, 9]: 0.272 ± 0.001 µM
- T. cruzi SI (T. cruzi epimastigotes): 36
- EC50 (T. cruzi epimastigotes; Trypanosoma cruzi, 336 h): < 0.01 µM
- EC50 (T. cruzi epimastigotes): 0.005 ± 0.001 µM
- EC50 ([6]; THP-1, 72 h): 0.181 ± 0.005 µM
- L. major EC50 (L. major promastigotes): high potency
- L. major SI (L. major promastigotes): 3
- EC50 (L. major promastigotes; Leishmania major, 144 h): 0.06 ± 0.001 µM

Molecule: O=NN(CCCl)C(=O)NC1CCCCC1 [Lomustine]
- ratio (fold difference in EC50 between RH1^RC1 and wild type) (RH1^RC1 T. brucei): 0.9
- EC50 (RH1^RC1 T. brucei; Trypanosoma brucei): 15.5 ± 0.665 µM
- EC50 [1, 11]: 16.6 ± 0.443 µM

Molecule: CC1=C(N2CC2)C(=O)C(C)=C(N2CC2)C1=O [MeDZQ]
- Fold difference in EC50 Tbntr++ relative to control [2]: 115 ± 3 (0.16 )
- EC50 [2]: 0.115 µM
- T. brucei SI [1]: 1
- EC50 [1, 9]: 0.698 ± 0.057 µM
- EC50 [1, 12]: 0.74 ± 0.018 µM
- T. cruzi SI (T. cruzi epimastigotes): 16
- EC50 (T. cruzi epimastigotes; Trypanosoma cruzi, 336 h): 0.055 ± 0.002 µM
- EC50 ([6]; THP-1, 72 h): 0.885 ± 0.023 µM
- L. major SI (L. major promastigotes): 2
- EC50 (L. major promastigotes; Leishmania major, 144 h): 0.56 ± 0.139 µM

Molecule: N[C@@H](Cc1ccc(N(CCCl)CCCl)cc1)C(=O)O [Melphalan]
- ratio (fold difference in EC50 between RH1^RC1 and wild type) (RH1^RC1 T. brucei): 1.2
- EC50 (RH1^RC1 T. brucei; Trypanosoma brucei): 10.4 ± 0.23 µM
- EC50 [1, 10]: 8.74 ± 0.2 µM

Molecule: CC1=C(N2CC2)C(=O)C(CO)=C(N2CC2)C1=O [RH1]
- Cells in G1/S phase (1N1K) (Wild type T. brucei): 37%
- Cells in G2/M phase (1N2K) (Wild type T. brucei): 58%
- Fold difference in EC50 Tbntr++ relative to control [2]: 3 ± 1 (0.16 )
- Susceptibility of TbNTR over expressing T. brucei relative to controls / wild type (fold more susceptible) [2]: fivefold
- EC50 [2]: 0.003 µM
- EC50 ([5]; non‐cancerous primary cells, up to 5 days): < 0.1 µM
- EC50 of Tbntr heterozygote line relative to wild type (fold greater) [7]: approximately 2.5 fold
- Doubling time of resistant clones (RH1^RC1 T. brucei): ~10.5 h
- Fold less sensitive, RH1^RC lines versus controls (RH1^RC1 T. brucei): ~4.5 fold
- Fold less sensitive, RH1^RC lines versus wild type (RH1^RC1 T. brucei): ~3.5 fold
- ratio (fold difference in EC50 between RH1^RC1 and wild type) (RH1^RC1 T. brucei): 3.3
- EC50 (RH1^RC1 T. brucei; Trypanosoma brucei): 0.086 ± 0.003 µM
- EC50 (RH1^RC1 T. brucei): 0.083 ± 0.002 µM
- EC50 (RH1^RC2 T. brucei; Trypanosoma brucei): 0.091 ± 0.011 µM
- EC50 (RH1^RC2 T. brucei): 0.092 ± 0.001 µM
- Fold difference in EC50 Tbcpr2++ relative to control [3]: 20 ± 3 (1.05)
- EC50 [3]: 0.02 µM
- Ratio of EC50 values ΔTbsnm1 / control [4]: 0.26
- Susceptibility of Tbsnm1 null mutants relative to wild type / control (fold more susceptible) [4]: threefold
- EC50 [4]: 0.005 ± 0.001 µM
- T. brucei SI ([1]; Selectivity Index: fold difference in EC50 of THP‐1 line relative to parasite): <5
- EC50 ([1]; Trypanosoma brucei, Table 2, parasites expressing wild type levels, read-out: EC50 Control): 0.019 ± 0.001 µM
- EC50 [1, 11]: 0.025 ± 0.006 µM
- EC50 ([1]; Trypanosoma brucei, Table 4, wild type T. brucei, read-out: EC50 Control): 0.019 ± 0.001 µM
- inhibition at 0.005 µM ([1]; Trypanosoma brucei, 5 nM): ~10%
- Growth of wild type T. brucei ([1]; medium containing RH1 (40 nM), after 24 hrs): no growth
- T. cruzi SI (T. cruzi epimastigotes): <33
- EC50 ([6]; 72 h, differentiated THP‐1 cells, 3 days): < 0.1 µM
- Fold increase in susceptibility of ΔTbsnm1 Tbntr++ versus wild type [8]: 15 fold
- L. major SI (L. major promastigotes): <1
- EC50 (L. major promastigotes; Leishmania major, 144 h, promastigotes, 6 days): < 0.1 µM
- L. major EC50 (L. major promastigotes; promastigotes, 6 days): high potency
- EC50 (L. major promastigotes; promastigotes, 6 days): 0.068 ± 0.001 µM

Molecule: CC1CCC(NC(=O)N(CCCl)N=O)CC1 (stereo not drawn) [Semustine]
- ratio (fold difference in EC50 between RH1^RC1 and wild type) (RH1^RC1 T. brucei): 1.1
- EC50 (RH1^RC1 T. brucei; Trypanosoma brucei): 17.1 ± 3.62 µM
- EC50 [1, 10]: 15 ± 3.46 µM

Molecule: O=C1C=C(N2CC2)C(=O)C(N2CC2)=C1N1CC1 [TZQ]
- Fold difference in EC50 Tbntr++ relative to control [2]: 60 ± 9 (0.27 )
- EC50 [2]: 0.06 µM
- EC50 [5]: < 0.1 µM
- Fold difference in EC50 Tbcpr2++ relative to control [3]: 284 ± 13 (1.26)
- EC50 [3]: 0.284 µM
- Ratio of EC50 values ΔTbsnm1 / control [4]: 0.18
- Susceptibility of Tbsnm1 null mutants relative to wild type / control (fold more susceptible) [4]: 2.7 fold
- EC50 [4]: 0.046 ± 0.001 µM
- T. brucei SI [1]: <1
- EC50 [1, 9]: 0.179 ± 0.001 µM
- EC50 [1, 12]: 0.225 ± 0.026 µM
- EC50 ([1]; read-out: EC50 Control): 0.253 ± 0.033 µM
- T. cruzi SI (T. cruzi epimastigotes): <33
- EC50 ([6]; THP-1, 72 h): < 0.1 µM
- Fold increase in susceptibility of ΔTbsnm1 Tbntr++ versus wild type [8]: 15 fold
- L. major SI (L. major promastigotes): <11

Molecule: S=P(N1CC1)(N1CC1)N1CC1 [ThioTEPA, reference compound]
- EC50 (RH1^RC1 T. brucei; Trypanosoma brucei): 56.3 ± 1.96 µM
- EC50 [1, 10]: 39.4 ± 0.796 µM

Molecule: C1CN1c1nc(N2CC2)nc(N2CC2)n1 [Triethylenemelamine]
- ratio (fold difference in EC50 between RH1^RC1 and wild type) (RH1^RC1 T. brucei): 1.1
- EC50 (RH1^RC1 T. brucei; Trypanosoma brucei): 2.77 ± 0.064 µM
- EC50 [1, 10]: 2.4 ± 0.086 µM

Molecule: O=C(Cn1ccnc1[N+](=O)[O-])NCc1ccccc1 [benznidazole]
- Susceptibility of RH1 selected (RH1^RC) lines relative to wild type (RH1^RC1 T. brucei): cross‐resistance

Molecule: phleomycin [reference compound]
- Cells in G1/S phase (1N1K) (Wild type T. brucei): approximately 80%
